Test system: Plasmodium berghei
Test: Luciferase/luciferin-expressing antifolate-resistant parasites were used to infect a culture of HepG2 cells that were pre-incubated with compounds. Infected hepatocytes emit light due to the luciferase reaction. Assay results are presented as the percent inhibition of light emission compared to control. […]
Format: functional
Settings: sporozoite; for IC50: read-out: LUCIFERASE INFECTION ASSAY - IC50; for IC90: read-out: LUCIFERASE INFECTION ASSAY - IC90

| SMILES | IC50 | IC90 |
| --- | --- | --- |
| N#CCCN(C(=O)COC(=O)c1ccc2c(c1)NC(=O)CS2)c1ccc2c(c1)OCCO2 | > 10 µM | > 10 µM |
| Cc1ccc2nc(C)c(CN3CCN(c4ccc([N+](=O)[O-])cc4Cl)CC3)n2c1 | > 10 µM | > 10 µM |
| CCCc1ccc(C(=O)C(C)Sc2nnc(-c3ccc(OC(F)F)cc3)o2)cc1 (centres undefined) | > 10 µM | > 10 µM |
| COc1cc(OC)cc(C2c3c(C)nn(-c4ccccc4)c3NC(=O)C2NC(=O)c2ccccc2)c1 (centres undefined) | > 10 µM | > 10 µM |
| COc1ccccc1NCC(=O)N/N=C/c1cc(C)c2cc(C(C)C)ccc(C)c1-2 | > 10 µM | > 10 µM |
| COc1ccc(/C=C/C(=O)N2CCCC2c2cccs2)cc1S(=O)(=O)N1CCCCC1 (centres undefined) | > 10 µM | > 10 µM |
| N#C/C(=C\c1cn(Cc2ccccc2)nc1-c1cccnc1)c1ccc([N+](=O)[O-])cc1 | 0.786 µM | 1.62 µM |
| CC(C)(C)c1ccc(OCC(=O)NNC(=O)Cc2csc(-c3ccccc3)n2)cc1 | > 10 µM | > 10 µM |
| COC(=O)C(C(=O)CSc1nnc(-c2ccc(C(C)(C)C)cc2)n1C)=C1Nc2ccccc2N1 | > 10 µM | > 10 µM |
| CCOc1ccccc1NC(=O)COC(=O)c1cc(S(=O)(=O)Nc2cccc(C)c2)ccc1C | > 10 µM | > 10 µM |
| Cc1cc(OCC(=O)/N=c2/sccn2C)c(C(C)C)cc1Cl | > 10 µM | > 10 µM |
| CC(C(=O)Nc1cccc(S(=O)(=O)N2CCOCC2)c1)N(C)Cc1cccc(Cl)c1Cl (centres undefined) | > 10 µM | > 10 µM |
| COc1cc2c(cc1/C=C/C(=O)N(Cc1nc(=O)c3ccccc3[nH]1)CC1CCCO1)OC(C)C2 (centres undefined) | > 10 µM | > 10 µM |
| Cc1cc(C)cc(N(C(=O)C23CC4CC(CC(C4)C2)C3)C2C=CS(=O)(=O)C2)c1 (centres undefined) | > 10 µM | > 10 µM |
| C/C(c1cccs1)=[N+](/[O-])C(C)/C(=N/O)c1ccco1 (centres undefined) | > 10 µM | > 10 µM |
| Cn1ccnc1C(=O)c1cc(SCC(=O)N2CCN(S(=O)(=O)c3ccc4ccccc4c3)CC2)nc2ccccc12 | > 10 µM | > 10 µM |
| COc1ccc(Cl)cc1NC(=O)CN(C)C(=O)c1cc(-c2ccccc2)nc2c1cnn2C(C)C | > 10 µM | > 10 µM |
| CC1(NC(=O)COC(=O)c2cc(Cl)c3c(c2)OCO3)CCS(=O)(=O)C1 (centres undefined) | > 10 µM | > 10 µM |
| CCc1ccccc1Nc1nc(N)nc(CN2CCN(S(=O)(=O)Cc3ccccc3)CC2)n1 | > 10 µM | > 10 µM |
| Cc1ccccc1OCCCn1c(CCCNC(=O)c2ccco2)nc2ccccc21 | > 10 µM | > 10 µM |
| Cc1oc2cc(OC(C)C(=O)Nc3cccc([N+](=O)[O-])c3)ccc2c(=O)c1-c1ccccc1 (centres undefined) | 8.01 µM | > 10 µM |
| CCOC(=O)c1c(NC(=O)COC(=O)c2c(C)noc2C)sc(-c2ccccc2)c1C | > 10 µM | > 10 µM |
| Cc1nc(SCC(=O)NCCN2C(=O)CSC2=O)n(C2CCCCC2)c1C | > 10 µM | > 10 µM |
| CCOc1ccccc1OCC(=O)Nc1nc(-c2cc(C)n(-c3ccc(F)cc3)c2C)cs1 | > 10 µM | > 10 µM |
| Cc1c(NC(=O)c2cccc(Nc3nc(-c4cccs4)nc4ccccc34)c2)c(=O)n(-c2ccccc2)n1C | 9.1 µM | > 10 µM |
| c1ccc(CN2CCC(Nc3nc(-c4ccccn4)nc4scc(-c5ccccc5)c34)CC2)cc1 | > 10 µM | > 10 µM |

| SMILES | IC50 | IC90 |
| --- | --- | --- |
| COC(=O)c1ccc2c(=O)nc(CSc3nnc(-c4ccccc4)c(-c4ccccc4)n3)[nH]c2c1 | > 10 µM | > 10 µM |
| CC1CCc2sc(C(=O)OCC(=O)NCCN3C(=O)CSC3=S)cc2C1 (centres undefined) | > 10 µM | > 10 µM |
| Cn1c(C(=O)N2CCN(C(c3ccccc3)c3ccccc3)CC2)cc2c(=O)n3ccccc3nc21 | > 10 µM | > 10 µM |
| CCCCOc1ccc(CN2CCN(CC(=O)NC)CC2)cc1OCC | > 10 µM | > 10 µM |
| Cc1cccn2cc(CN3CCN(S(=O)(=O)c4ccc(Cl)c(C(F)(F)F)c4)CC3)nc12 | > 10 µM | > 10 µM |
| CC(=O)N1CCC(C(=O)Nc2cc(C(F)(F)F)ccc2NC2CCCCC2)CC1 | > 10 µM | > 10 µM |
| C=CCN(C(=O)c1ccccc1OCc1c(C)noc1C)c1nc2c(s1)CCCC2 | > 10 µM | > 10 µM |
| O=[N+]([O-])c1cc2c(cc1C(O)c1nnc(-c3ccccc3)o1)OCO2 (centres undefined) | 1.69 µM | 8.01 µM |
| COc1ccccc1-n1c(SCc2cc(=O)oc3c(C)c(C)ccc23)nc2ccccc2c1=O | > 10 µM | > 10 µM |
| Cc1ccc(Cn2ccs/c2=N/C(=O)COC(=O)CCN2C(=O)C3CC=CCC3C2=O)cc1 (centres undefined) | > 10 µM | > 10 µM |
| Cc1sc2ncnc(Sc3ccccc3C(=O)NNc3c(Cl)cc(Cl)cc3Cl)c2c1C | > 10 µM | > 10 µM |
| O=C(NCCc1c[nH]c2ccccc12)c1ccc2c(c1)CC(c1ccccc1)OC2=O (centres undefined) | > 10 µM | > 10 µM |
| CCOC(=O)c1[nH]c(C)c(C(=O)OCC(=O)Nc2ccc(S(=O)(=O)NC3=NCCCCC3)cc2)c1C | > 10 µM | > 10 µM |
| O=C(C1CC(=O)N(c2ccccc2F)C1)N1CCN(c2ccc(C(F)(F)F)cn2)CC1 (centres undefined) | > 10 µM | > 10 µM |
| O=c1c(-c2ccc([N+](=O)[O-])cc2)c(-c2ccc(Cl)cc2)cc2[nH]c3ccccc3n12 | > 10 µM | > 10 µM |
| CCOC(=O)c1c(NC(=O)C(C)N(C)CC(=O)Nc2cc(C)ccc2C)sc2c1CCC(C)C2 (centres undefined) | > 10 µM | > 10 µM |
| COc1cc(NC(=O)CSc2nc(N)c3c4c(sc3n2)CCCC4)c(C)cc1[N+](=O)[O-] | 3.53 µM | > 10 µM |
| CCn1c2ccccc2c2cc(/C=C3\SC(=S)N(CCCN(C)C)C3=O)ccc21 | > 10 µM | > 10 µM |
| Cc1c(C(=O)OCC(=O)/C=C2\N(C)c3ccccc3C2(C)C)sc2nc3n(c(=O)c12)CCC3 | > 10 µM | > 10 µM |
| C=C(C)C1CC=C(C)/C(=N\NC(=O)C(=O)N/N=C2/CC(C(=C)C)CC=C2C)C1 (centres undefined) | > 10 µM | > 10 µM |
| COc1ccccc1NC(=O)c1cc2ccccc2c(CN2CCN(c3ccccc3)CC2)c1O | > 10 µM | > 10 µM |
| CCCCCCn1c(SCC(=O)Nc2sc(C(=O)N(CC)CC)c(C)c2C(=O)OCC)nc2ccccc21 | > 10 µM | > 10 µM |
| CCOC(=O)c1sc(N)c(C#N)c1CSc1nnc(-c2ccncc2)n1-c1ccc(CC)cc1 | > 10 µM | > 10 µM |
| CCOc1cc(/C=C(\C#N)C(=O)c2cccc(OC)c2)cc(Cl)c1O | > 10 µM | > 10 µM |
| CCCCOc1ccc(C(=O)Nc2ccc(N(c3ccccc3)C(C)C)cc2)cc1OCC | > 10 µM | > 10 µM |
| CC(C)(C)c1ccc(OCC(=O)N2CCC(C(N)=O)CC2)cc1 | > 10.4 µM | > 10.4 µM |

| SMILES | IC50 | IC90 |
| --- | --- | --- |
| Cc1cc(O)c(C(C)C)cc1NC1=NC(=O)S/C1=C\c1cc(Cl)ccc1OCC(=O)Nc1ccc(Cl)cc1 | 2.98 µM | 3.24 µM |
| Cc1ccc(Cn2nc(C)c(C(=O)OCC(=O)/C=C3\N(C)c4ccccc4C3(C)C)c2Cl)cc1 | > 10 µM | > 10 µM |
| O=C(COC(=O)c1cn(-c2ccccc2)nc1-c1cccs1)Nc1nnc(-c2ccccc2)o1 | > 10 µM | > 10 µM |
| CC(C)OCCCNCC(O)COCc1ccccc1Cl (centres undefined) | > 10 µM | > 10 µM |
| CC(C)Cn1c(N)c(C(=O)COC(=O)Cn2c(C(F)(F)F)nc3ccccc32)c(=O)n(C)c1=O | > 10 µM | > 10 µM |
| Cc1sc2ncnc(N3CCC(C(=O)Nc4nnc(-c5cccc([N+](=O)[O-])c5)o4)CC3)c2c1C | > 10 µM | > 10 µM |
| O=C(COC(=O)c1ccc(-n2ncc(Cl)c(Cl)c2=O)cc1)Nc1ccc(F)cc1 | > 10 µM | > 10 µM |
| O=C(O)c1ccc(N=C2C=C(NS(=O)(=O)c3ccc(Cl)cc3)c3ccccc3C2=O)cc1 | > 10 µM | > 10 µM |
| O=C(CN1CCN(Cc2ccc(-n3cccn3)cc2)CC1)Nc1ccc(OC(F)(F)F)cc1 | > 10 µM | > 10 µM |
| Cc1ccc(-n2c(SCC(=O)NCCN3C(=O)S/C(=C\c4ccc(C(C)(C)C)cc4)C3=O)nc3sc4c(c3c2=O)CCCC4)c(C)c1 | > 10 µM | > 10 µM |
| CCc1ccc(CN(C)C(C)C(=O)Nc2cc(S(=O)(=O)N(C)C)ccc2C)cc1 (centres undefined) | 8.31 µM | > 10 µM |
| C=CCNc1nc(C(=O)OCc2cc(=O)n3cc(Br)ccc3n2)cs1 | > 10 µM | > 10 µM |
| CN(C)c1ccc(C(c2cc(C(C)(C)C)c(O)c(C(C)(C)C)c2)N2CCCCC2)cc1 (centres undefined) | > 10 µM | > 10 µM |
| Cc1ccc2c(C)cc(Sc3nc4ccccc4s3)nc2c1 | > 10 µM | > 10 µM |
| COC(=O)c1c(COC(=O)/C=C/c2ccc(OCC#N)c(OC)c2)nc2ccccc2c1-c1ccccc1 | > 10 µM | > 10 µM |
| CCOc1ccc(-c2nc(NC(=O)c3ccc(OC)c(S(=O)(=O)N(C)OC)c3)sc2C)cc1 | > 10 µM | > 10 µM |
| CC1(c2cc(F)ccc2F)NC(=O)N(CC(=O)c2cn(CCC#N)c3ccccc23)C1=O (centres undefined) | > 10 µM | > 10 µM |
| CCC(C)c1ccc(S(=O)(=O)N2CCN(C(C)C(=O)N3c4ccccc4CC3C)CC2)cc1 (centres undefined) | > 10 µM | > 10 µM |
| Cc1c(C(=O)Nc2ccc(N3CCOCC3)cc2N2CCOCC2)oc2ccc(F)cc12 | > 10 µM | > 10 µM |
| Cc1ccc(S(=O)(=O)c2ccc(NNS(=O)(=O)c3cccc([N+](=O)[O-])c3)cc2)cc1 | > 10 µM | > 10 µM |
| CCCCn1nc(C(=O)NC(c2ccccc2)c2ccc(OC)cc2)c2ccccc2c1=O (centres undefined) | > 10 µM | > 10 µM |
| O=C(Nc1ccccc1C(=O)OCN1C(=O)c2ccccc2C1=O)c1ccc([N+](=O)[O-])cc1Cl | > 10 µM | > 10 µM |
| FC(F)Oc1ccccc1/C=N/n1c(-c2ccc3c(c2)OCCO3)cs/c1=N\CC1CCCO1 (centres undefined) | > 10 µM | > 10 µM |
| O=S(=O)(Nc1ccc(OC(F)F)c(Cl)c1)c1ccc(Cl)c(Cl)c1 | > 10 µM | > 10 µM |
| O=C(Cn1cnc2sc(-c3ccccc3)cc2c1=O)Nc1nc(CN2CCCCC2)cs1 | > 10 µM | > 10 µM |

Source: ChEMBL document CHEMBL4483862, “Open-source discovery of chemical leads for next-generation chemoprotective antimalarials” (2018)
